From paper PMC6267282, “Targeting the DNA Repair Endonuclease ERCC1-XPF with Green Tea Polyphenol Epigallocatechin-3-Gallate (EGCG) and Its Prodrug to Enhance Cisplatin Efficacy in Human Cancer Cells” (Nutrients, 2018)

Biological target: T1, ERCC1/XPF (XPF endonuclease) (Homo sapiens, UniProt Q92889)
T1 construct: gene ERCC4; with ERCC1
Assay: fluorescence-based DNA incision assay with purified ERCC1/XPF
Assay type: biochemical

T1 sequence (Q92889 whole entry): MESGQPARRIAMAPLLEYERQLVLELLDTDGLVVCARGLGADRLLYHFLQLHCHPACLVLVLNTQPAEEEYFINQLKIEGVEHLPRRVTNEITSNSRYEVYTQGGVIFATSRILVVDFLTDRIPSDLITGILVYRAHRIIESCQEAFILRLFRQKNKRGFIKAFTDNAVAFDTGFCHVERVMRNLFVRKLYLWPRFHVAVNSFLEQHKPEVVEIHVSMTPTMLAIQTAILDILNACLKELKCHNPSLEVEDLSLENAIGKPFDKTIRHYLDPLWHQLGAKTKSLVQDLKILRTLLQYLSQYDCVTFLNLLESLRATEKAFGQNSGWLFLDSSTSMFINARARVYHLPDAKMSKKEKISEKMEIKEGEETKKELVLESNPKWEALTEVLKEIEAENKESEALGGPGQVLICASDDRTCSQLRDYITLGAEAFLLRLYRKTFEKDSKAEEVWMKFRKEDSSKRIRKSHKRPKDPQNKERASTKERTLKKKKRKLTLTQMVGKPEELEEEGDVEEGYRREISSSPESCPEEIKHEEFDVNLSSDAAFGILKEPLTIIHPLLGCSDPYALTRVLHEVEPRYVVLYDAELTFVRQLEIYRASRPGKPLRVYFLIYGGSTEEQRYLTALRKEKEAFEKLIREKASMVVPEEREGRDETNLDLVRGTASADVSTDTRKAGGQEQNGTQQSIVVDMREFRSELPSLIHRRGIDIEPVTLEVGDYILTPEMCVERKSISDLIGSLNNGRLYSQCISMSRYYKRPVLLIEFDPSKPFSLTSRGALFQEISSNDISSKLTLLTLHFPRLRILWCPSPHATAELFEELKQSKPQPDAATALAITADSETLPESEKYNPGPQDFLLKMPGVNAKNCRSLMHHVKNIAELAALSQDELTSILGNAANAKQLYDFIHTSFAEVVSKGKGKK
T1 sequence (P07992 whole entry, further chain): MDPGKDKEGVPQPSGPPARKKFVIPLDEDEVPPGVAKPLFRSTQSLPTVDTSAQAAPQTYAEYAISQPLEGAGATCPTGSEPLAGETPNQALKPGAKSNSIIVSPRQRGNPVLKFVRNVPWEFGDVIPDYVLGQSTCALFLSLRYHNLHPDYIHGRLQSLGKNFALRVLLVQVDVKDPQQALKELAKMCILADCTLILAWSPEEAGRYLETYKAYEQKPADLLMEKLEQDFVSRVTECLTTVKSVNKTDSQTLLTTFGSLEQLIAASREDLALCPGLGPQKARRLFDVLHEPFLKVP

## O=c1c(O)c(-c2cc(O)c(O)c(O)c2)oc2cc(O)cc(O)c12 [Myricetin]
  IC50: ~150 nM
